# Measurements as given in patent US20100144712A1 (priority 2007, published 2010).
# Tests used:
# Type in all cases: cell-based
# [1] = test system: Candida albican ATCC 90873; assay: In vitro antifungal activity (MIC80), Candida albican ATCC 90873; settings: Candida, ATCC90873; Table 2, ATCC 90873; read-out: Minimal inhibitory concentration (MIC80)
# Protocol: (§1) In vitro antifungal activities of the inventive antifungal compounds were evaluated using test strains including Candida albican (ATCC 90873, 204276, 62342, 64124, 64550, 96901, MYA-573, MYA-574, MYA-575, MYA-576, MYA-1003) and Aspergillus fumigatus (ATCC 16424). Test samples and positive control samples were prepared by dissolving the inventive compounds and comparative compounds, i.e., amphotericin B, fluconazole and itraconazole, in DMSO, respectively, and each successively diluted with medium to obtain test and positive control solutions having test compound concentrations of 0.125 μg/ml to a maximum concentration not generating turbidity. Minimal inhibitory concentration (MIC80) of each compound was determined as the lowest concentration of the test compounds required to reduce growth by 80% relative to a control strain not treated.
# (§2) 1) Test strain: Candida albican ATCC 90873, 204276, 62342, 64124, 64550, 96901, MYA-573, MYA-574, MYA-575, MYA-576, MYA-1003, and Aspergillus fumigatus ATCC 16424 were commercially obtained from The American Type Culture Collection (ATCC) and subcultured in CHEMON Co. Ltd. (amphotericin B was commercially purchased from Sigma, and fluconazole and itraconazole were prepared according to methods described in British Patent No. 2,099,818; and U.S. Pat. No. 4,267,179, respectively).
# (§3) 2) Medium and culture condition: Candida albican was cultured in Sabourad Dextrose Agar, YM Agar or Potato Dextrose Agar according to ATCC information at a temperature of 37° C., 35° C., 30° C. or 25° C. Aspergillus fumigatus was cultured in Malt Extract Agar or Potato Dextrose Agar at a temperature ranging from 24 to 27° C.
# (§4) 3) Preparation of test samples: the inventive compounds and comparative compounds were each diluted with DMSO to obtain 1 to 2 ml of a test sample in a concentration of 100-folds of the determining maximum concentration (256 μg/ml).
# (§5) The test samples were each successively diluted with RPMI 1640 to obtain test solutions having concentrations of […] in a 12×75 mm sterilized disposable culture tube. The final concentration of DMSO was adjusted to […] (v/v).
# (§6) 5) Preparation of strain solution and inoculation
# (§7) Candida albican strains were each subcultured in Sabourad Dextrose Agar, YM Agar or Potato Dextrose Agar medium at 35° C. for 2˜3 days. In the case of yeasts, a single colony was taken from prominent colonies and suspended in 0.85% sterile physiological saline solution and the turbidity of the suspension was adjusted to 80˜82% at 530 nm, and then diluted 50-fold with RPMI 1640 medium to 1.0×10^3˜5.0×10^3 CFU/ml. The turbidity of fungi was adjusted to 80˜82% and the suspension was diluted 50-fold to […]. Aspergillus fumigatus strains were subcultured in Malt Extract Agar for 7˜10 days, and a single colony was taken from prominent colonies and suspended in 0.85% sterile physiological saline solution and the suspension was adjusted to 0.108 at 530 nm, and then diluted 1000-fold with RPMI 1640 medium to 0.4×10^2˜5×10^4 CFU/ml. The turbidity of fungi was adjusted to 80˜82% and the suspension was diluted 50-fold to 0.4102˜0.5104 CFU/ml.
# (§8) The strain solutions thus obtained were each seeded into a sterilized 96-well microplate, 0.1 ml of each test solution were added thereto, and […] of alamarblue was treated to each well (Biosource, #DAL1100). This procedure was repeated 2 times.
# (§9) Minimal inhibitory concentration (MIC80) of each compound was determined as the lowest concentration of the test compounds required to reduce growth by 80% relative to a control strain not treated.
# [2] = test system: Candida albican ATCC 96901; assay: In vitro antifungal activity (MIC80), Candida albican ATCC 96901; settings: Candida, ATCC96901; Table 2, ATCC 96901; read-out: Minimal inhibitory concentration (MIC80)
# Protocol: as §1, §2, §3, §4, §5, §6, §7, §8, §9
# [3] = test system: Candida albican ATCC MYA-1003; assay: In vitro antifungal activity (MIC80), Candida albican ATCC MYA-1003; settings: Candida; Table 2, MYA 1003; read-out: Minimal inhibitory concentration (MIC80)
# Protocol: as §1, §2, §3, §4, §5, §6, §7, §8, §9
# [4] = test system: Candida albican ATCC 62342; assay: In vitro antifungal activity (MIC80), Candida albican ATCC 62342; settings: Candida, ATCC62342; Table 2, 62342; read-out: Minimal inhibitory concentration (MIC80)
# Protocol: as §1, §2, §3, §4, §5, §6, §7, §8, §9
# [5] = test system: Candida albican ATCC 64124; assay: In vitro antifungal activity (MIC80), Candida albican ATCC 64124; settings: Candida, ATCC64124; Table 2, 64124; read-out: Minimal inhibitory concentration (MIC80)
# Protocol: as §1, §2, §3, §4, §5, §6, §7, §8, §9
# [6] = test system: Candida albican ATCC 64550; assay: In vitro antifungal activity (MIC80), Candida albican ATCC 64550; settings: Candida, ATCC64550; Table 2, 64550; read-out: Minimal inhibitory concentration (MIC80)
# Protocol: as §1, §2, §3, §4, §5, §6, §7, §8, §9
# [7] = test system: Candida albican ATCC MYA-573; assay: In vitro antifungal activity (MIC80), Candida albican ATCC MYA-573; settings: Candida; Table 2, MYA 573; read-out: Minimal inhibitory concentration (MIC80)
# Protocol: as §1, §2, §3, §4, §5, §6, §7, §8, §9
# [8] = test system: Candida albican ATCC MYA-574; assay: In vitro antifungal activity (MIC80), Candida albican ATCC MYA-574; settings: Candida; Table 2, MYA 574; read-out: Minimal inhibitory concentration (MIC80)
# Protocol: as §1, §2, §3, §4, §5, §6, §7, §8, §9
# [9] = test system: Candida albican ATCC MYA-575; assay: In vitro antifungal activity (MIC80), Candida albican ATCC MYA-575; settings: Candida; Table 2, MYA 575; read-out: Minimal inhibitory concentration (MIC80)
# Protocol: as §1, §2, §3, §4, §5, §6, §7, §8, §9
# [10] = test system: Candida albican ATCC MYA-576; assay: In vitro antifungal activity (MIC80), Candida albican ATCC MYA-576; settings: Candida; Table 2, MYA 576; read-out: Minimal inhibitory concentration (MIC80)
# Protocol: as §1, §2, §3, §4, §5, §6, §7, §8, §9
# [11] = test system: Aspergillus fumigatus (ATCC 16424); assay: In vitro antifungal activity (MIC80), Aspergillus fumigatus ATCC 16424; settings: Aspergillus fumigatus, ATCC16424, Table 2, ATCC 16424; read-out: Minimal inhibitory concentration (MIC80)
# Protocol: as §1, §2, §3, §4, §5, §6, §7, §8, §9
# MIC80 of each of the compounds of which antifungal activities can be confirmed by Table 2 was determined using other test strains, i.e., Aspergillus fumigatus ATCC 16424 and MYA-1163, Aspergillus terreus ATCC 28301, Aspergillus flavus ATCC MYA-1004, and Aspergillus niger ATCC 9142.
Structure (SMILES),MIC80 [1],MIC80 [2],MIC80 [3],MIC80 [4],MIC80 [5],MIC80 [6],MIC80 [7],MIC80 [8],MIC80 [9],MIC80 [10],MIC80 [11]
"C[C@@H](N1CCN(Cc2ccncc2)CC1)[C@](O)(Cn1cncn1)c1ccc(F)cc1F [Example 42, (2R,3R)-2-(2,4-difluorophenyl)-3-(4-((pyridin-4-yl)methyl)piperazin-1-yl)-1-(1H-1,2,4-triazol-1-yl)butan-2-ol]",0.125 µg/mL,64 µg/mL,128 µg/mL,0.5 µg/mL,64 µg/mL,4 µg/mL,1 µg/mL,4 µg/mL,0.5 µg/mL,0.125 µg/mL,
"C[C@@H](N1CCN(C(=O)c2nc(-c3ccccc3)no2)CC1)[C@](O)(Cn1cncn1)c1ccc(F)cc1F [Example 45, (4-((2R,3R)-3-(2,4-difluorophenyl)-3-hydroxy-4-(1H-1,2,4-triazol-1-yl)butan-2-yl)piperazin-1-yl)(3-phenyl-1,2,4-oxadiazol-5-yl)methanone]",0.125 µg/mL,> 128 µg/mL,> 128 µg/mL,,,,1 µg/mL,,,,0.125 µg/mL
"C[C@@H](N1CCN(C(=O)c2nc(-c3ccc(Br)cc3)no2)CC1)[C@](O)(Cn1cncn1)c1ccc(F)cc1F [Example 46, (3-(4-bromophenyl)-1,2,4-oxadiazol-5-yl)(4-((2R,3R)-3-(2,4-difluorophenyl)-3-hydroxy-4-(1H-1,2,4-triazol-1-yl)butan-2-yl)piperazin-1-yl)methanone]",0.125 µg/mL,> 128 µg/mL,> 128 µg/mL,,,,> 128 µg/mL,,,,0.126 µg/mL
"C[C@@H](N1CCN(C(=O)c2nc(-c3ccccc3)ns2)CC1)[C@](O)(Cn1cncn1)c1ccc(F)cc1F [Example 50, (4-((2R,3R)-3-(2,4-difluorophenyl)-3-hydroxy-4-(1H-1,2,4-triazol-1-yl)butan-2-yl)piperazin-1-yl)(3-phenyl-1,2,4-thiadiazol-5-yl)methanone]",0.125 µg/mL,> 128 µg/mL,> 128 µg/mL,,,,> 128 µg/mL,,,,0.5 µg/mL

# The remaining lines, values ahead:
MIC80 [1],MIC80 [2],MIC80 [3],MIC80 [4],MIC80 [5],MIC80 [6],MIC80 [7],MIC80 [8],MIC80 [9],MIC80 [10],MIC80 [11],Structure (SMILES)
0.125 µg/mL,> 128 µg/mL,> 128 µg/mL,,,,0.25 µg/mL,,,,0.25 µg/mL,"Cc1ccc(-c2noc(C(=O)N3CCN([C@H](C)[C@](O)(Cn4cncn4)c4ccc(F)cc4F)CC3)n2)cc1 [Example 47, (4-((2R,3R)-3-(2,4-difluorophenyl)-3-hydroxy-4-(1H-1,2,4-triazol-1-yl)butan-2-yl)piperazin-1-yl)(3-p-tolyl-1,2,4-oxadiazol-5-yl)methanone]"
0.126 µg/mL,> 128 µg/mL,> 128 µg/mL,,,,0.25 µg/mL,,,,0.126 µg/mL,"CC(N1CCN(C(=O)c2nc(-c3ccc(Cl)cc3)no2)CC1)C(O)(Cn1cncn1)c1ccc(F)cc1F [Example 48, (3-(4-chlorophenyl-1,2,4-oxadiazol-5-yl)(4-((2R,3R)-3-(2,4-difluorophenyl)-3-hydroxy-4-(1H-1,2,4-triazol-1-yl)butan-2-yl)piperazin-1-yl)methanone]"
0.125 µg/mL,> 128 µg/mL,> 128 µg/mL,,,,1 µg/mL,,,,0.5 µg/mL,"COc1ccc(-c2noc(C(=O)N3CCN([C@H](C)[C@](O)(Cn4cncn4)c4ccc(F)cc4F)CC3)n2)cc1 [Example 49, (4-((2R,3R)-3-(2,4-difluorophenyl)-3-hydroxy-4-(1H-1,2,4-triazol-1-yl)butan-2-yl)piperazin-1-yl)(3-(4-methoxyphenyl)-1,2,4-oxadiazol-5-yl)methanone]"
